Laboratory results taken from the supplement of paper PMC10307832.

Columns and labels:
Experiment in all cases: relative viability (nuclei count vs DMSO), 5 days (fraction); higher = more cells survive
Salubrinal + Decitabine = compound: O=C(/C=C/c1ccccc1)NC(NC(=S)Nc1cccc2cccnc12)C(Cl)(Cl)Cl [Salubrinal] + Nc1ncn([C@H]2C[C@H](O)[C@@H](CO)O2)c(=O)n1 [Decitabine] (partner 2 µM)
Method in brief: (§1)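 Relative viability divides the nuclei count in treated wells by that in vehicle wells. Lung cancer cell lines were seeded in 1536-well plates, dosed by pin tool the next day, and fixed and stained after 5 days in one step with final 0.05% Triton X-100, 1% formaldehyde and 1 ug/ml Hoechst. Dosing was a single drug or a fixed anchor-drug dose plus five library-drug doses (not always all listed) in √10 steps, and values are medians of duplicate plates imaged at 4×.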

Salubrinal + OSI-027 = compound: O=C(/C=C/c1ccccc1)NC(NC(=S)Nc1cccc2cccnc12)C(Cl)(Cl)Cl [Salubrinal] + COc1cccc2cc(-c3nc([C@H]4CC[C@H](C(=O)O)CC4)n4ncnc(N)c34)[nH]c12 [OSI-027] (partner 0.5 µM)
Method in brief: as §1

Salubrinal + Olaparib = compound: O=C(/C=C/c1ccccc1)NC(NC(=S)Nc1cccc2cccnc12)C(Cl)(Cl)Cl [Salubrinal] + O=C(c1cc(Cc2n[nH]c(=O)c3ccccc23)ccc1F)N1CCN(C(=O)C2CC2)CC1 [Olaparib] (partner 8 µM)
Method in brief: as §1

[1] = compound: Cc1ccc2nc(NCCN)c3ncc(C)n3c2c1 + Nc1nc2[nH]cc(CCc3ccc(C(=O)N[C@@H](CCC(=O)O)C(=O)O)cc3)c2c(=O)[nH]1 [Pemetrexed] (partner 0.2 µM)
Method in brief: as §1

| Cell Line | relative viability (Salubrinal + Decitabine; first compound 0.08 µM) | relative viability (Salubrinal + Decitabine; first compound 0.8 µM) | relative viability (Salubrinal + Decitabine; first compound 2.53 µM) | relative viability (Salubrinal + Decitabine; first compound 8 µM) | relative viability (Salubrinal + OSI-027; first compound 0.08 µM) | relative viability (Salubrinal + OSI-027; first compound 0.253 µM) | relative viability (Salubrinal + OSI-027; first compound 0.8 µM) | relative viability (Salubrinal + OSI-027; first compound 2.53 µM) | relative viability (Salubrinal + OSI-027; first compound 8 µM) | relative viability (Salubrinal + Olaparib; first compound 0.08 µM) | relative viability (Salubrinal + Olaparib; first compound 0.8 µM) | relative viability (Salubrinal + Olaparib; first compound 2.53 µM) | relative viability (Salubrinal + Olaparib; first compound 8 µM) | relative viability ([1]; first compound 0.04 µM) | relative viability ([1]; first compound 0.1265 µM) | relative viability ([1]; first compound 0.4 µM) | relative viability ([1]; first compound 1.265 µM) | relative viability ([1]; first compound 4 µM) | relative viability (Salubrinal + Decitabine; first compound 0.253 µM) | relative viability (Salubrinal + Olaparib; first compound 0.253 µM) |
| --- | --- | --- | --- | --- | --- | --- | --- | --- | --- | --- | --- | --- | --- | --- | --- | --- | --- | --- | --- | --- |
| NCI-H1915 | 0.249 | 0.268 | 0.248 | 0.246 | 0.628 | 0.609 | 0.716 | 0.682 | 0.637 | 0.256 | 0.257 | 0.28 | 0.273 | 0.511 | 0.502 | 0.463 | 0.519 | 0.442 |  |  |
| NCI-H596 | 1.1 | 1.18 | 0.969 | 0.863 | 0.657 | 0.721 | 0.793 | 0.716 | 0.646 | 0.768 | 0.597 | 0.668 | 0.581 | 0.484 | 0.447 | 0.506 | 0.515 | 0.49 | 1.02 | 0.525 |
| NCI-H322M | 0.785 | 0.684 | 0.716 | 0.656 | 0.471 | 0.536 | 0.565 | 0.57 | 0.471 | 0.806 | 0.766 | 0.675 | 0.728 | 0.654 | 0.621 | 0.62 | 0.634 | 0.647 | 0.648 | 0.783 |
| NCI-H522 | 0.711 | 0.617 | 0.705 | 0.729 | 0.74 | 0.661 | 0.734 | 0.791 | 0.571 | 0.565 | 0.701 | 0.686 | 0.637 | 1.02 | 1.24 | 0.766 | 1.28 | 0.95 | 1.19 | 0.648 |
| NCI-H647 | 0.389 | 0.451 | 0.443 | 0.552 | 0.76 | 0.671 | 0.6 | 0.638 | 0.604 | 0.72 | 0.685 | 0.63 | 0.453 | 0.179 | 0.158 | 0.243 | 0.221 | 0.243 | 0.452 | 0.372 |
| NCI-H2170 | 0.483 | 0.496 | 0.472 | 0.461 | 0.71 | 0.702 | 0.783 | 0.687 | 0.47 | 0.65 | 0.668 | 0.641 | 0.636 | 0.258 | 0.305 | 0.26 | 0.257 | 0.262 | 0.452 | 0.632 |
| NCI-H1793 | 0.625 | 0.521 | 0.467 | 0.608 | 0.308 | 0.331 | 0.307 | 0.23 | 0.236 | 1.09 | 0.876 | 0.979 | 0.751 | 0.951 | 0.85 | 0.846 | 0.714 | 0.766 | 0.494 | 0.948 |
| NCI-H2085 | 0.521 | 0.564 | 0.508 | 0.643 | 0.793 | 0.629 | 0.848 | 0.712 | 0.717 | 0.804 | 0.765 | 0.76 | 0.745 | 0.87 | 0.934 | 0.855 | 0.892 | 1 | 0.583 | 0.742 |
| SW 1573 | 0.697 | 0.609 | 0.488 | 0.555 | 0.763 | 0.622 | 0.589 | 0.565 | 0.493 | 0.607 | 0.542 | 0.43 | 0.522 | 1.01 | 0.828 | 0.912 | 0.992 | 0.611 | 0.372 | 0.488 |
| NCI-H441 | 0.235 | 0.265 | 0.269 | 0.222 | 0.603 | 0.59 | 0.678 | 0.573 | 0.506 | 0.732 | 0.675 | 0.542 | 0.514 | 0.301 | 0.288 | 0.269 | 0.268 | 0.261 | 0.243 | 0.448 |
| LOU-NH91 | 0.837 | 0.817 | 0.845 | 0.777 | 0.721 | 0.708 | 0.744 | 0.737 | 0.688 | 0.967 | 0.897 | 0.9 | 0.961 | 0.411 | 0.344 | 0.361 | 0.465 | 0.495 | 0.842 | 0.908 |
| NCI-H3122 | 0.399 | 0.51 | 0.461 | 0.442 | 1.21 | 0.885 | 1.32 | 1.03 | 1.07 | 0.762 | 0.566 | 0.664 | 0.683 | 0.199 | 0.192 | 0.192 | 0.218 | 0.2 | 0.443 | 1.23 |
| NCI-H460 | 0.517 | 0.475 | 0.379 | 0.444 | 1.21 | 0.406 | 1.03 | 0.514 | 0.317 | 0.541 | 0.514 | 0.355 | 0.368 | 0.0612 | 0.0659 | 0.065 | 0.0654 | 0.0753 | 0.461 | 0.606 |
| NCI-H650 | 0.288 | 0.352 | 0.298 | 0.323 | 0.584 | 0.554 | 0.576 | 0.629 | 0.452 | 0.438 | 0.474 | 0.385 | 0.381 | 0.999 | 0.976 | 0.827 | 1.01 | 0.851 | 0.297 | 0.45 |
| NCI-H661 | 0.602 | 0.57 | 0.474 | 0.536 | 0.781 | 0.58 | 0.77 | 0.705 | 0.603 | 0.753 | 0.76 | 0.73 | 0.758 | 0.909 | 0.949 | 0.958 | 0.891 | 0.868 | 0.474 | 0.538 |
| NCI-H1734 | 0.573 | 0.527 | 0.474 | 0.477 | 0.724 | 0.572 | 0.633 | 0.542 | 0.636 | 0.699 | 0.651 | 0.583 | 0.637 | 0.438 | 0.395 | 0.413 | 0.48 | 0.496 | 0.51 | 0.6 |
